Data taken from patent publication US11912693B2, “Compounds for modulating S1P1 activity and methods of using the same” (TREVENA, INC., priority 2017, dated 2024).

How the values were obtained:
[1] = molecular target: T1, human sphingosine-1-phosphate receptor 1 (S1P1) (Homo sapiens (Human), UniProt P21453); assay: β-Arrestin2 recruitment assay (PathHunter), S1P1 CHO-K1 cells; assay type: cell-based; settings: for Emax: CHO-K1, efficacy (SPAN) normalized to fingolimod, read-out: hS1P1 B-arrestin2 SPAN
How it was run: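 Enzyme-fragment complementation read-out: agonist-driven β-arrestin2 binding to ProLink-tagged human S1P1 in stable CHO-K1 cells restores β-galactosidase, measured 1 h at room temperature after a 60 min 37° C. compound incubation. Potency as pEC50, efficacy relative to fingolimod (SPAN).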
Target sequence in this assay (P21453 whole entry, looked up, the tested form may be a part): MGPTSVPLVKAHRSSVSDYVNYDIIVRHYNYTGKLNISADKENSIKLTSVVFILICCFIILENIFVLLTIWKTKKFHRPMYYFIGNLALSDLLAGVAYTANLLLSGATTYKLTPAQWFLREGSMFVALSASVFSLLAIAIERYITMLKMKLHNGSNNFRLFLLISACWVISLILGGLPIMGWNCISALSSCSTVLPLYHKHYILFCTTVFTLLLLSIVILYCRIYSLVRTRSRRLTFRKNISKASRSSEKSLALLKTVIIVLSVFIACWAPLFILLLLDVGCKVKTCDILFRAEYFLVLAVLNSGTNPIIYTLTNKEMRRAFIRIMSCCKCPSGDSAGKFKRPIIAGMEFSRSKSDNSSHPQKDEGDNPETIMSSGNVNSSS
Target sequence in this assay (P32121 whole entry partner, looked up, the tested form may be a part): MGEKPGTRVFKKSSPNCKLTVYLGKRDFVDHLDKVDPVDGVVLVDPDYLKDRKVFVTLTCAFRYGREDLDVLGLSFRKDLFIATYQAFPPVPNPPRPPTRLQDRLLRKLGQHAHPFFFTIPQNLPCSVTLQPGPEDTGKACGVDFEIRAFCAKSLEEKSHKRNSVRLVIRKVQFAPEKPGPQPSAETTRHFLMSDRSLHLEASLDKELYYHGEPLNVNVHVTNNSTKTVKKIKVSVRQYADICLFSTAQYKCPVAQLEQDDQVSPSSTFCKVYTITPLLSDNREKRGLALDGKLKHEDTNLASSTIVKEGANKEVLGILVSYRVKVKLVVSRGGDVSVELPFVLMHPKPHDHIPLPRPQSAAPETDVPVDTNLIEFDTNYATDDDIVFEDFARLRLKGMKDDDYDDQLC

[2] = molecular target: T1, human sphingosine-1-phosphate receptor 1 (S1P1); assay: Inhibition of cAMP production (HTRF cAMP HiRange), S1P1 CHO-K1 cells; assay type: cell-based; settings: for hS1P1 cAMP pEC50 / EC50: inhibition of cAMP production, S1P1 CHO-K1 cells; for Emax: CHO-K1, efficacy (SPAN) normalized to fingolimod, read-out: hS1P1 cAMP SPAN; for EC50: read-out: hS1P1 cAMP pEC50 (converted)
How it was run: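 CHO-K1 cells stably co-expressing human S1P1 (C-terminal Prolink tag) and EA-β-arrestin2 were grown in AssayComplete Media 6 at 37° C. and 5% CO2, plated, and incubated overnight. Agonist-driven inhibition of intracellular cAMP was read by TR-FRET with the HTRF cAMP HiRange kit on a PheraStar reader. Potency is pEC50, and efficacy (SPAN) is normalized to fingolimod.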
Target sequence in this assay (P21453 whole entry, looked up, the tested form may be a part): as the sequence (P21453 whole entry, looked up, the tested form may be a part) above

[3] = β-arrestin2 recruitment, S1P1 CHO-K1 cells

Row | SMILES | hS1P1 B-arrestin2 pEC50 [1, 3] | hS1P1 cAMP pEC50 [2] | Emax [1] [%] | Emax [2] [%] | EC50 [2] [nM] | EC50 ([1]; β-arrestin2 recruitment, S1P1 CHO-K1 cells, read-out: hS1P1 B-arrestin2 pEC50 (converted)) [nM]
1 | Cn1ccnc1-c1noc(-c2ccc3c(c2)nnn3CC(C)(C)O)n1 [Compound 567, 2-methyl-1-{5-[3-(1-methyl-1H-imidazol-2-yl)-1,2,4-oxadiazol-5-yl]-1H-1,2,3-benzotriazol-1-yl}propan-2-ol] | <5 | <6.5 |  |  |  | 
2 | CCn1nnc2cc(-c3noc(-c4ccccc4Br)n3)ccc21 [Compound 2, 5-(2-bromophenyl)-3-(1-ethyl-1H-benzo[d][1,2,3]triazol-5-yl)-1,2,4-oxadiazole] | >5 |  | < 75 | > 75 | > 316 | 
3 | N#Cc1cc(-c2nnc(-c3ccc4c(c3)CCC(=O)N4)o2)ccc1NCC(F)F [Compound 477, 2-[(2,2-difluoroethyl)amino]-5-[5-(2-oxo-1,2,3,4-tetrahydroquinolin-6-yl)-1,3,4-oxadiazol-2-yl]benzonitrile] | >5 | >6.5 |  |  |  | 
4 | Cc1cc(-c2noc(-c3ccc4c(c3)nnn4C(C)C)n2)c(C)o1 [Compound 490, 5-[3-(2,5-dimethylfuran-3-yl)-1,2,4-oxadiazol-5-yl]-1-(propan-2-yl)-1H-1,2,3-benzotriazole] |  |  | > 75 | > 75 | < 316 | < 10000
5 | Cc1ccc(-c2nc(-c3ccc4c(c3)nnn4C3CCCC3)no2)cc1 [Compound 235, 3-(1-cyclopentyl-1H-benzo[d][1,2,3]triazol-5-yl)-5-(p-tolyl)-1,2,4-oxadiazole] | <5 | <6.5 |  |  |  | 
6 | Cc1ccccc1-c1noc(-c2ccc3c(c2)CCC(=O)N3C)n1 [Compound 367, 1-methyl-6-[3-(2-methylphenyl)-1,2,4-oxadiazol-5-yl]-1,2,3,4-tetrahydroquinolin-2-one] | <5 | <6.5 |  |  |  | 
7 | CC1(C)Oc2ccc(-c3nc(-c4cccnc4)no3)cc2C1=O [Compound 481, 2,2-dimethyl-5-[3-(pyridin-3-yl)-1,2,4-oxadiazol-5-yl]-2,3-dihydro-1-benzofuran-3-one] | >5 | <6.5 |  |  |  | 
8 | Brc1ccccc1-c1nc(-c2ccc3c(c2)nnn3Cc2cccnc2)no1 [Compound 283, 5-(2-bromophenyl)-3-(1-(pyridin-3-ylmethyl)-1H-benzo[d][1,2,3]triazol-5-yl)-1,2,4-oxadiazole] | <5 | <6.5 | < 75 | < 75 |  | 
9 | COc1ccccc1-c1nnc(-c2ccc3c(c2)CCC(=O)N3)o1 [Compound 341, 6-[5-(2-methoxyphenyl)-1,3,4-oxadiazol-2-yl]-1,2,3,4-tetrahydroquinolin-2-one] | <5 | <6.5 |  |  |  | 
10 | COc1cc(-c2nc(-c3ccc4c(c3)nnn4C(C)C)no2)ccn1 [Compound 116, 3-(1-isopropyl-1H-benzo[d][1,2,3]triazol-5-yl)-5-(2-methoxypyridin-4-yl)-1,2,4-oxadiazole] | <5 | <6.5 | < 75 | < 75 |  | 
11 | CC(C)n1nnc2cc(-c3nsc(-c4ccccc4O)n3)ccc21 [Compound 112, 2-{3-[1-(propan-2-yl)-1H-1,2,3-benzotriazol-5-yl]-1,2,4-thiadiazol-5-yl}phenol] | >5 | >6.5 |  |  |  | 
12 | CC(C)Oc1ccccc1-c1noc(-c2ccc3c(c2)nnn3C(C)C)n1 [Compound 62, 3-(2-isopropoxyphenyl)-5-(1-isopropyl-1H-benzo[d][1,2,3]triazol-5-yl)-1,2,4-oxadiazole] | <5 | <6.5 |  |  |  | 
